According to US10865216B2, “Tricyclic Gyrase inhibitors” (MERCK SHARP & DOHME CORP., priority 2012, dated 2020):
In brackets after ≈: the same amount, converted by molar mass.

Each molecule was assayed on E. coli ATCC 25922 (assay: MIC, E. coli ATCC 25922). Conditions: Escherichia coli, ATCC25922, E. coli; Alamar Blue read after overnight incubation at 35° C.; read-out: MIC Ec.
Format: cell-based
In the case of `CNc1cccc2c1[nH]c1nc(Sc3cncnc3)nc(N3CC4C(N)C4C3)c12` (stereo not shown) [Compound 1.43], the MIC is reported as 8 µg/mL (≈ 19.8 µM).
With `CNc1cccc2c1[nH]c1nc(Oc3cncc(C#N)c3)cc(N3CCN(CCN4CCOCC4)CC3)c12` [Compound 3.59] the MIC was greater than 64 µg/mL.
With `CNc1cccc2c1[nH]c1nc(Oc3cncnc3)cc(N3C/C(=N\OC)[C@@H](N)C3)c12` [Compound 3.62] the MIC was 8 µg/mL (≈ 19.1 µM).
`CNc1cccc2c1[nH]c1nc(Oc3cncc(C#N)c3)cc(N3CC(N)C4(CC4)C3)c12` (stereo not shown) [Compound 3.43] was tested, and the MIC was 1 µg/mL (≈ 2.35 µM).
`CNc1cc(F)cc2c1[nH]c1nc(Oc3cnc(C)nc3)nc(-c3cccnc3N)c12` [Compound 4.448] gave an MIC of 1 µg/mL (≈ 2.4 µM).
`Cc1ncc(Oc2nc(N3C[C@H](N)C4(CC4)C3)c3c(n2)[nH]c2c(N(C)C(=O)[C@H](C)NC(=O)[C@H](C)N)cc(F)cc23)cn1` [Compound 4.425] showed an MIC greater than 16 µg/mL.
Molecule `CNc1cccc2c1[nH]c1nc(Oc3cncnc3)cc(N3CC4C(C3)C4NCC3CC3)c12` (stereo not shown) [Compound 3.13] has an MIC of 1 µg/mL (≈ 2.26 µM).
`CNc1cccc2c1[nH]c1nc(Oc3cncnc3)cc(Oc3cncnc3)c12` [Compound 3.37] was tested, and the MIC was greater than 64 µg/mL.
`CNc1cccc2c1[nH]c1nc(Sc3cnc4cccnc4c3)nc(N3CC(N)C3)c12` [Compound 1.29] was tested, and the MIC was greater than 64 µg/mL.
Molecule `CNc1cccc2c1[nH]c1nc(Sc3cnc4cccnc4c3)nc(N3CC4CNC(C4)C3)c12` (stereo not shown) [Compound 1.47] has an MIC of 2 µg/mL (≈ 4.27 µM).
In the case of `CNc1ccc(C)c2c1[nH]c1nc(Sc3cnc4ccc[n+]([O-])c4c3)nc(N3CC(N)C4(CC4)C3)c12` (stereo not shown) [Compound 1.72], the MIC is reported as 1 µg/mL (≈ 2.01 µM).
`CNc1cccc2c1[nH]c1nc(Oc3cncnc3)cc(N3C[C@H](NCC4CC4)C4(CC4)C3)c12` [Compound 3.12] gave an MIC of 8 µg/mL (≈ 17.6 µM).
Molecule `CNc1cccc2c1[nH]c1nc(Sc3cnc4cccnc4c3)nc(N3CCCCC(N)C3)c12` (stereo not shown) [Compound 1.45] has an MIC of 4 µg/mL (≈ 8.5 µM).
With `CNc1cc(F)cc2c1[nH]c1nc(Oc3cnc(C)nc3)nc(N3CC(N)C(C(=O)NCCN4CCOCC4)C3)c12` (stereo not shown) [Compound 4.440] the MIC was greater than 16 µg/mL.
`CNc1cccc2c1[nH]c1nc(Oc3cncnc3)cc(N3C[C@@H](NC)C4(CC4)C3)c12` [Compound 3.46] was tested, and the MIC was 4 µg/mL (≈ 9.63 µM).
Molecule `CNc1cc(F)cc2c1[nH]c1nc(Sc3cnc4ccc[n+]([O-])c4c3)nc(N3CCC4(CC4N)C3)c12` (stereo not shown) [Compound 1.64] has an MIC of no more than 0.5 µg/mL.

Same assay, conditions: Escherichia coli, ATCC25922, Table 16; new R4 substituents; EC8 not defined; read-out: EC8 MIC
Molecule `CNc1cc(F)cc2c1[nH]c1nc(Oc3cnc(C)nc3)nc(N3CC[C@H](CN)C3)c12` has an MIC of no more than 0.5 µg/mL.
`CNc1cc(F)cc2c1[nH]c1nc(Oc3cnc(C)nc3)nc(N3CCC(N)(CN)C3)c12` (stereo not shown) showed an MIC of 16 µg/mL (≈ 36.6 µM).

Same assay, conditions: Table 11; L = CH2; EC8 not defined
`CNc1cc(F)cc2c1[nH]c1nc(Cc3cnc(C)nc3)nc(N3CC4C(N)C4C3)c12` (stereo not shown) [drawing 1737] gave an EC8 MIC of 0.25 µg/mL.
With `CNc1cc(F)cc2c1[nH]c1nc(Cc3cnc(C)nc3)nc(N3CC[C@@]4(C[C@@H]4N)C3)c12` the EC8 MIC was 8 µg/mL.

Same assay, conditions: Table 12; Z is C and connected to R4; EC8 not defined
Molecule `CNc1cc(F)c2c3c1[nH]c1nc(Oc4cncnc4)nc(c13)-c1ccccc1NC2` has an EC8 MIC greater than 16 µg/mL.

Same assay, conditions: Table 18, Ec
`CNc1cc(F)cc2c1[nH]c1nc(Oc3cnc(C(C)OC)nc3)nc(N3CC4CC4C3)c12` (stereo not shown) [Compound 10.117] gave an MIC Ec of no more than 0.5 µg/mL.
Work on `CNc1cc(F)cc2c1[nH]c1nc(Oc3cnc(C)nc3)nc(N3CCC(S(N)(=O)=O)C3)c12` (stereo not shown) [Compound 10.104] yielded an MIC Ec of 8 µg/mL (≈ 16.9 µM).
For `CNc1cc(F)c(F)c2c1[nH]c1nc(Oc3cnc4c(C)cnn4c3)nc(N3C[C@H]4C[C@@H]3C[C@H]4N)c12` [Compound 10.26], the MIC Ec was no more than 0.5 µg/mL.
Work on `CNc1cc(F)cc2c1[nH]c1nc(Oc3cnc(C)nc3)nc(N3CC4(CC/C4=N\O)C3)c12` [Compound 10.61] yielded an MIC Ec of 2 µg/mL (≈ 4.46 µM).
In the case of `CNc1cc(F)c(Cl)c2c1[nH]c1nc(Oc3cnc4ccnn4c3)nc(N3C[C@H]4C[C@@H](N)[C@H]4C3)c12` [Compound 10.86], the MIC Ec is reported as 0.25 µg/mL (≈ 0.506 µM).
Molecule `CNc1cc(F)cc2c1[nH]c1nc(Nc3cccnc3)nc(N3C[C@H]4C[C@@H]3C[C@H]4N)c12` [Compound 10.44] has an MIC Ec of no more than 0.5 µg/mL.
For `CNc1cc(F)cc2c1[nH]c1nc(Oc3ccc4ccnn4c3)nc(N3CC4(CCC4N)C3)c12` (stereo not shown) [Compound 10.57], the MIC Ec was no more than 0.5 µg/mL.
With `CNc1ncc(Oc2nc(N3CCC4(CC[C@H]4N)C3)c3c(n2)[nH]c2c(NC)cc(F)cc23)cn1` (stereo partly shown) [Compound 10.102] the MIC Ec was no more than 0.5 µg/mL.

What follows are molecules tested on S. aureus ATCC 13709 (assay: MIC, S. aureus ATCC 13709). Conditions: Staphylococcus aureus, ATCC13709, S. aureus; Alamar Blue read after overnight incubation at 35° C.; read-out: MIC Sa.
Format: cell-based
`CNc1cccc2c1[nH]c1nc(Sc3cncnc3)nc(N3CC4C(N)C4C3)c12` (stereo not shown) [Compound 1.43] was tested, and the MIC was 2 µg/mL (≈ 4.94 µM).
Work on `CNc1cccc2c1[nH]c1nc(Oc3cncc(C#N)c3)cc(N3CCN(CCN4CCOCC4)CC3)c12` [Compound 3.59] yielded an MIC of 4 µg/mL (≈ 7.8 µM).
In the case of `CNc1cccc2c1[nH]c1nc(Oc3cncnc3)cc(N3C/C(=N\OC)[C@@H](N)C3)c12` [Compound 3.62], the MIC is reported as no more than 0.5 µg/mL.
With `CNc1cccc2c1[nH]c1nc(Oc3cncc(C#N)c3)cc(N3CC(N)C4(CC4)C3)c12` (stereo not shown) [Compound 3.43] the MIC was no more than 0.5 µg/mL.
`CNc1cc(F)cc2c1[nH]c1nc(Oc3cnc(C)nc3)nc(-c3cccnc3N)c12` [Compound 4.448] showed an MIC of no more than 0.5 µg/mL.
For `Cc1ncc(Oc2nc(N3C[C@H](N)C4(CC4)C3)c3c(n2)[nH]c2c(N(C)C(=O)[C@H](C)NC(=O)[C@H](C)N)cc(F)cc23)cn1` [Compound 4.425], the MIC was greater than 16 µg/mL.
Molecule `CNc1cccc2c1[nH]c1nc(Oc3cncnc3)cc(N3CC4C(C3)C4NCC3CC3)c12` (stereo not shown) [Compound 3.13] has an MIC of no more than 0.5 µg/mL.
Work on `CNc1cccc2c1[nH]c1nc(Oc3cncnc3)cc(Oc3cncnc3)c12` [Compound 3.37] yielded an MIC of 2 µg/mL (≈ 5.19 µM).
In the case of `CNc1cccc2c1[nH]c1nc(Sc3cnc4cccnc4c3)nc(N3CC(N)C3)c12` [Compound 1.29], the MIC is reported as 1 µg/mL (≈ 2.33 µM).
`CNc1cccc2c1[nH]c1nc(Sc3cnc4cccnc4c3)nc(N3CC4CNC(C4)C3)c12` (stereo not shown) [Compound 1.47] showed an MIC of no more than 0.5 µg/mL.
`CNc1ccc(C)c2c1[nH]c1nc(Sc3cnc4ccc[n+]([O-])c4c3)nc(N3CC(N)C4(CC4)C3)c12` (stereo not shown) [Compound 1.72] gave an MIC of no more than 0.5 µg/mL.
`CNc1cccc2c1[nH]c1nc(Oc3cncnc3)cc(N3C[C@H](NCC4CC4)C4(CC4)C3)c12` [Compound 3.12] gave an MIC of 1 µg/mL (≈ 2.2 µM).
`CNc1cccc2c1[nH]c1nc(Sc3cnc4cccnc4c3)nc(N3CCCCC(N)C3)c12` (stereo not shown) [Compound 1.45] gave an MIC of 1 µg/mL (≈ 2.12 µM).
Molecule `CNc1cc(F)cc2c1[nH]c1nc(Oc3cnc(C)nc3)nc(N3CC(N)C(C(=O)NCCN4CCOCC4)C3)c12` (stereo not shown) [Compound 4.440] has an MIC of 16 µg/mL (≈ 28.3 µM).
For `CNc1cccc2c1[nH]c1nc(Oc3cncnc3)cc(N3C[C@@H](NC)C4(CC4)C3)c12` [Compound 3.46], the MIC was 2 µg/mL (≈ 4.81 µM).
`CNc1cc(F)cc2c1[nH]c1nc(Sc3cnc4ccc[n+]([O-])c4c3)nc(N3CCC4(CC4N)C3)c12` (stereo not shown) [Compound 1.64] was tested, and the MIC was no more than 0.5 µg/mL.

Same assay, conditions: Staphylococcus aureus, ATCC13709, Table 16; new R4 substituents; read-out: SA MIC
With `CNc1cc(F)cc2c1[nH]c1nc(Oc3cnc(C)nc3)nc(N3CC[C@H](CN)C3)c12` the MIC was no more than 0.5 µg/mL.
For `CNc1cc(F)cc2c1[nH]c1nc(Oc3cnc(C)nc3)nc(N3CCC(N)(CN)C3)c12` (stereo not shown), the MIC was no more than 0.5 µg/mL.

Same assay, conditions: Table 11; compounds wherein L = CH2
With `CNc1cc(F)cc2c1[nH]c1nc(Cc3cnc(C)nc3)nc(N3CC4C(N)C4C3)c12` (stereo not shown) [drawing 1737] the SA MIC was no more than 0.5 µg/mL.
Work on `CNc1cc(F)cc2c1[nH]c1nc(Cc3cnc(C)nc3)nc(N3CC[C@@]4(C[C@@H]4N)C3)c12` yielded an SA MIC of 1 µg/mL.

Same assay, conditions: Table 12; Z is C and connected to R4
`CNc1cc(F)c2c3c1[nH]c1nc(Oc4cncnc4)nc(c13)-c1ccccc1NC2` showed an SA MIC of no more than 0.5 µg/mL.

Same assay, conditions: Table 18, Sa
In the case of `CNc1cc(F)cc2c1[nH]c1nc(Oc3cnc(C(C)OC)nc3)nc(N3CC4CC4C3)c12` (stereo not shown) [Compound 10.117], the MIC Sa is reported as no more than 0.5 µg/mL.
Work on `CNc1cc(F)cc2c1[nH]c1nc(Oc3cnc(C)nc3)nc(N3CCC(S(N)(=O)=O)C3)c12` (stereo not shown) [Compound 10.104] yielded an MIC Sa of no more than 0.5 µg/mL.
With `CNc1cc(F)c(F)c2c1[nH]c1nc(Oc3cnc4c(C)cnn4c3)nc(N3C[C@H]4C[C@@H]3C[C@H]4N)c12` [Compound 10.26] the MIC Sa was no more than 0.5 µg/mL.
Work on `CNc1cc(F)cc2c1[nH]c1nc(Oc3cnc(C)nc3)nc(N3CC4(CC/C4=N\O)C3)c12` [Compound 10.61] yielded an MIC Sa of 0.03 µg/mL (≈ 0.0669 µM).
With `CNc1cc(F)c(Cl)c2c1[nH]c1nc(Oc3cnc4ccnn4c3)nc(N3C[C@H]4C[C@@H](N)[C@H]4C3)c12` [Compound 10.86] the MIC Sa was no more than 0.5 µg/mL.
With `CNc1cc(F)cc2c1[nH]c1nc(Nc3cccnc3)nc(N3C[C@H]4C[C@@H]3C[C@H]4N)c12` [Compound 10.44] the MIC Sa was no more than 0.5 µg/mL.
`CNc1cc(F)cc2c1[nH]c1nc(Oc3ccc4ccnn4c3)nc(N3CC4(CCC4N)C3)c12` (stereo not shown) [Compound 10.57] gave an MIC Sa of no more than 0.5 µg/mL.
With `CNc1ncc(Oc2nc(N3CCC4(CC[C@H]4N)C3)c3c(n2)[nH]c2c(NC)cc(F)cc23)cn1` (stereo partly shown) [Compound 10.102] the MIC Sa was no more than 0.5 µg/mL.
